Test results reported in PubChem BioAssay (NCI).
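Cultured in 96-well plates, cells were exposed to test compound for 48 hours across five concentrations. Here, GI50 denotes the concentration required for 50% inhibition of growth. TGI is the concentration that stops growth completely.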

Tests used:
Experiment in all cases: NCI tumour cell line growth inhibition, 48 h
[1] = tested on: UACC-257 melanoma
[2] = tested on: M19-MEL melanoma
[3] = tested on: HOP-18 NSCLC
[4] = tested on: SK-MEL-5 melanoma
[5] = tested on: NCI-H23 lung
[6] = tested on: HOP-92 NSCLC
[7] = tested on: DLD-1 colon
[8] = tested on: COLO 205 colon
[9] = tested on: XF 498 CNS
[10] = tested on: SNB-78 CNS
[11] = tested on: KM20L2 colon
[12] = tested on: MDA-MB-231 breast
[13] = tested on: A498 renal

Compound | TGI [1] | TGI [2] | TGI [3] | TGI [4] | TGI [5] | TGI [6] | TGI [7] | TGI [8] | TGI [9] | TGI [10] | TGI [11] | TGI [12] | TGI [13] | GI50 [13]
Cc1ccc(Cl)c2c(=O)cc(-c3ccccc3)[nH]c12 | > 100 µM | > 100 µM | > 100 µM | > 100 µM | > 100 µM | > 100 µM | > 100 µM | > 100 µM |  |  |  |  |  | 
CCOC(=O)/C(C1=N[C@H](C(=O)OCC)CS1)=C(\O)c1ccccc1 | > 100 µM |  | > 100 µM | > 100 µM | > 100 µM |  | > 100 µM | > 100 µM | > 100 µM | > 100 µM | > 100 µM |  |  | 
CC(=O)CCCCCCCCCCCC[C@@H]1CC[C@H](C)[C@H](O)N1 | > 100 µM | > 100 µM | > 100 µM | > 100 µM | > 100 µM | > 100 µM | > 100 µM | > 100 µM | > 100 µM | > 100 µM | > 100 µM |  |  | 
CC(C)NCCNC(=O)c1ccccc1Nc1c(Cl)cccc1Cl | 22.3 µM | 20.8 µM |  | 17.3 µM | 32 µM |  | 25.7 µM | 24.9 µM | 11.4 µM | 31.5 µM | 5.78 µM |  |  | 
CCC1(O)CC(O)c2c(O)c3c(c(O)c2C1C(=O)OC)C(=O)c1cccc(O)c1C3=O (stereo unspecified) | 21.8 µM |  |  | 6.39 µM | 24.4 µM | 32.1 µM |  | 7.65 µM |  |  |  | 13 µM | 18.4 µM | 
O=C(NCCNCCO)N/N=C/c1ccccc1 | > 100 µM |  | > 100 µM | > 100 µM | > 100 µM |  | > 100 µM |  | > 100 µM | > 100 µM |  |  |  | 
C=C(C)C(=O)O[C@H]1CC2(CO)O[C@@H]2CC/C(COC(C)=O)=C/C2OC(=O)C(=C)[C@@H]21 (stereo partly specified) | 43.1 µM |  |  | > 100 µM | > 100 µM | 51.9 µM |  | 48.4 µM |  |  |  | > 100 µM | > 100 µM | 
c1cc2c3c(c1)[C@@H]1O[C@@H]1c1cccc(c1-3)[C@@H]1O[C@H]21 | 48.4 µM |  |  | 35.6 µM | 33.1 µM | 50.2 µM |  | 44.6 µM |  |  |  | 41.8 µM | > 100 µM | 
O=C(c1ccccc1)c1ccc2nc(-c3c(Cl)c(Cl)c(Cl)c(Cl)c3C(=O)Nc3ccco3)[nH]c2c1 | > 100 µM |  |  | > 100 µM | > 100 µM | > 100 µM |  | > 100 µM |  |  |  | > 100 µM | 92.2 µM | 
C#Cc1cccc(Nc2ncnc3cc(OCCOC)c(OCCOC)cc23)c1 | > 100 µM |  |  | > 78.9 µM | > 100 µM | 60.2 µM |  | > 100 µM |  |  |  | 44.2 µM | 45.8 µM | 2.19 µM
C/C=C\C(CC(=O)NCCc1c[nH]c2ccccc12)CC(=O)OC (stereo unspecified) | > 100 µM |  |  | > 100 µM | > 100 µM | > 100 µM |  | > 100 µM |  |  |  | > 100 µM | > 100 µM | 
COC(C/C=C\C=C\CC/C=C/CC(C)/C=C/C(=C\C(=O)O)CC(=O)O)/C(C)=C\C=C(/C)C(=O)O (stereo unspecified) | > 100 µM |  |  | > 100 µM | > 100 µM | > 100 µM |  | > 100 µM |  |  |  | > 100 µM | > 100 µM | 
O=c1[nH]nc(N/N=C\c2ccc(Cl)cc2)c2ccccc12 | 49.3 µM |  |  | 39.3 µM | 40.1 µM | 34.5 µM |  | 45.9 µM |  |  |  | 43.7 µM | 51.2 µM | 
CCCOC1OC(CS(=O)(=O)O)C(OC(C)=O)C(OC(C)=O)C1OC(C)=O (stereo unspecified) | > 100 µM |  |  | > 100 µM | > 100 µM | > 100 µM |  | > 100 µM |  |  |  | > 100 µM | > 100 µM | 
CCOC(=O)COC1=Nc2cc(OC)c(OC)c3nc(Cl)cc(c23)C1=O | 3.21 µM |  |  | 3.53 µM | 5.3 µM | 3.22 µM |  | 3.88 µM |  |  |  | 3.28 µM | 23.5 µM | 
S=c1oc(CCCCCCCCc2nn(CNc3ccc(Cl)cc3)c(=S)o2)nn1CNc1ccc(Cl)cc1 | > 100 µM |  |  | 39.8 µM | > 100 µM | > 100 µM |  | 22.2 µM |  |  |  | > 100 µM | > 100 µM | 
O=C1/C(=C/C=C/c2ccccc2)CCC1CNc1ccc(Br)cc1 (stereo unspecified) | > 100 µM |  |  | > 100 µM | > 100 µM | > 100 µM |  | 48.6 µM |  |  |  | > 100 µM | > 100 µM | 
C=C1CC(Cn2cc(Br)c(=O)[nH]c2=O)(c2ccc(Br)cc2)OC1=O (stereo unspecified) | 4.11 µM |  |  | 7.5 µM | 10.6 µM | 2.96 µM |  | 3.18 µM |  |  |  | 17.4 µM | 10.2 µM | 
CCOC(=O)c1nc2ccccc2nc1Nc1ccc(F)cc1 | > 100 µM |  |  | > 100 µM | 69.1 µM | 43.9 µM |  | > 100 µM |  |  |  | 24.2 µM | 58.5 µM | 
O=C1C(Cl)C(c2cccc(O)c2)N1n1cnc2ccccc2c1=O (stereo unspecified) | > 100 µM | > 100 µM | > 100 µM | > 100 µM | > 100 µM |  | > 100 µM | > 100 µM | > 100 µM | > 100 µM | > 100 µM |  |  | 
NNc1nnc(-c2ccccc2)nc1Cc1ccccc1 |  | > 100 µM | 7.25 µM | > 100 µM | > 100 µM |  | > 100 µM | > 100 µM | 79.3 µM |  | > 100 µM |  |  | 
